Experimental data reported in ChEMBL document CHEMBL1201862, “PubChem BioAssay data set” (2004).
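How tested: cells in 96-well plates exposed to compound for 48 hours at five concentrations. Here, GI50 denotes the concentration required for 50% inhibition of growth.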 Active and inactive are the calls of the source. No stated cut-off is given here; in the data, active = GI50 up to about 1.1 µM and inactive = higher.

Assays:
Assay in all cases: DTP human tumour cell line panel, 48 h
A549 = tested on: A549
NCI-H460 = tested on: NCI-H460
Malme-3M = tested on: Malme-3M
M14 = tested on: M14
HT-29 = tested on: HT-29
RXF 393 = tested on: RXF 393
LOX IMVI = tested on: LOX IMVI
UO-31 = tested on: UO-31
M19-MEL = tested on: M19-MEL
MOLT-4 = tested on: MOLT-4
SF-295 = tested on: SF-295
HCT-15 = tested on: HCT-15
SNB-19 = tested on: SNB-19
NCI-H522 = tested on: NCI-H522
SK-MEL-2 = tested on: SK-MEL-2
TK-10 = tested on: TK-10
LXFL 529 = tested on: LXFL 529
NCI-H226 = tested on: NCI-H226
CCRF-CEM = tested on: CCRF-CEM
HOP-62 = tested on: HOP-62
OVCAR-5 = tested on: OVCAR-5
COLO 205 = tested on: COLO 205
HCT-116 = tested on: HCT-116
KM12 = tested on: KM12
OVCAR-8 = tested on: OVCAR-8
HCC 2998 = tested on: HCC 2998
OVCAR-4 = tested on: OVCAR-4
K562 = tested on: K562
DMS-114 = tested on: DMS-114
DMS-273 = tested on: DMS-273
CAKI-1 = tested on: CAKI-1
RPMI-8226 = tested on: RPMI-8226
SNB-75 = tested on: SNB-75
SN12C = tested on: SN12C
HL-60 = tested on: HL-60
SK-MEL-28 = tested on: SK-MEL-28
EKVX = tested on: EKVX
KM-20L2 = tested on: KM-20L2
UACC-62 = tested on: UACC-62
SW-620 = tested on: SW-620
SF-268 = tested on: SF-268
HOP-92 = tested on: HOP-92
IGROV-1 = tested on: IGROV-1
SK-OV-3 = tested on: SK-OV-3
SR = tested on: SR
ACHN = tested on: ACHN
XF498 = tested on: XF498
SF-539 = tested on: SF-539
OVCAR-3 = tested on: OVCAR-3
DLD-1 = tested on: DLD-1

Which GI50 (A549) does the source give for `Cc1cc2c(C(C)C)c(O)c(O)c(/C=N/c3ccccc3)c2c(O)c1-c1c(C)cc2c(C(C)C)c(O)c(O)c(/C=N/c3ccccc3)c2c1O` here?
The GI50 was > 100 µM (inactive).

What about the GI50 (NCI-H460) of the same compound?
Its GI50 is > 100 µM (inactive).

What about the GI50 (Malme-3M) of the same compound?
Its GI50 is > 100 µM (inactive).

What about the GI50 (M14) of the same compound?
The GI50 was > 100 µM (inactive).

What about the GI50 (HT-29) of the same compound?
The GI50 was > 100 µM (inactive).

And the GI50 (RXF 393)?
Its GI50 is > 100 µM (inactive).

What about the GI50 (LOX IMVI) of the same compound?
The GI50 was > 100 µM (inactive).

What about the GI50 (UO-31) of the same compound?
Its GI50 is > 100 µM (inactive).

What about the GI50 (M19-MEL) of the same compound?
The GI50 was > 100 µM (inactive).

What about the GI50 (MOLT-4) of the same compound?
Its GI50 is > 100 µM (inactive).

What about the GI50 (SF-295) of the same compound?
The GI50 was > 100 µM (inactive).

What about the GI50 (HCT-15) of the same compound?
Its GI50 is > 100 µM.

And the GI50 (SNB-19)?
The GI50 was > 100 µM (inactive).

What about the GI50 (NCI-H522) of the same compound?
The GI50 was > 100 µM (inactive).

What about the GI50 (SK-MEL-2) of the same compound?
The GI50 was > 100 µM (inactive).

And the GI50 (TK-10)?
The GI50 was > 100 µM (inactive).

And the GI50 (LXFL 529)?
The GI50 was > 100 µM (inactive).

And the GI50 (NCI-H226)?
The GI50 was > 100 µM (inactive).

And the GI50 (CCRF-CEM)?
The GI50 was > 100 µM (inactive).

What about the GI50 (HOP-62) of the same compound?
Its GI50 is > 100 µM (inactive).

And the GI50 (OVCAR-5)?
The GI50 was > 100 µM (inactive).

And the GI50 (COLO 205)?
The GI50 was > 100 µM (inactive).

And the GI50 (HCT-116)?
Its GI50 is > 100 µM (inactive).

And the GI50 (KM12)?
The GI50 was > 100 µM (inactive).

What about the GI50 (OVCAR-8) of the same compound?
The GI50 was > 100 µM (inactive).

What about the GI50 (HCC 2998) of the same compound?
Its GI50 is > 100 µM (inactive).

And the GI50 (OVCAR-4)?
Its GI50 is > 100 µM (inactive).

And the GI50 (K562)?
The GI50 was > 100 µM (inactive).

What about the GI50 (DMS-114) of the same compound?
The GI50 was > 100 µM (inactive).

What about the GI50 (DMS-273) of the same compound?
Its GI50 is > 100 µM (inactive).

And the GI50 (CAKI-1)?
Its GI50 is > 100 µM (inactive).

And the GI50 (RPMI-8226)?
Its GI50 is > 100 µM (inactive).

And the GI50 (SNB-75)?
The GI50 was 67.8 µM (inactive).

What about the GI50 (SN12C) of the same compound?
Its GI50 is > 100 µM (inactive).

What about the GI50 (HL-60) of the same compound?
The GI50 was > 100 µM (inactive).

What about the GI50 (SK-MEL-28) of the same compound?
The GI50 was > 100 µM (inactive).

What about the GI50 (EKVX) of the same compound?
Its GI50 is > 100 µM (inactive).

What about the GI50 (KM-20L2) of the same compound?
Its GI50 is > 100 µM (inactive).

And the GI50 (UACC-62)?
The GI50 was > 100 µM (inactive).

What about the GI50 (SW-620) of the same compound?
The GI50 was > 100 µM (inactive).

And the GI50 (SF-268)?
The GI50 was > 100 µM (inactive).

What about the GI50 (HOP-92) of the same compound?
Its GI50 is > 100 µM (inactive).

And the GI50 (IGROV-1)?
Its GI50 is > 100 µM (inactive).

What about the GI50 (SK-OV-3) of the same compound?
The GI50 was > 100 µM (inactive).

And the GI50 (SR)?
The GI50 was > 100 µM (inactive).

What about the GI50 (ACHN) of the same compound?
Its GI50 is > 100 µM (inactive).

What about the GI50 (XF498) of the same compound?
Its GI50 is > 100 µM (inactive).

And the GI50 (SF-539)?
Its GI50 is > 100 µM (inactive).

And the GI50 (OVCAR-3)?
Its GI50 is > 100 µM (inactive).

What about the GI50 (DLD-1) of the same compound?
Its GI50 is > 100 µM (inactive).
